Values quoted from earlier work, collected in patent EP2839829B1 (Korea United Pharm. Inc., priority 2012, dated 2013).

Conditions: in the body

half life: about 1 hr
SMILES: OC[C@@H](O)CN1CCN(c2ccccc2)CC1 [levodropropizine]
